# Test results: patent US20260167622A1, “PAN-KRAS DEGRADING AGENT, AND PREPARATION METHOD THEREFOR AND USE THEREOF” (LEADINGTAC PHARMACEUTICAL (SHAOXING) CO., LTD., priority 2022, published 2026)
# Columns and labels:
# Human KRAS G12V = target: T1, Human KRAS G12V (Homo sapiens, UniProt P01116, G12V); assay: KRAS-G12V/GTP binding assay (HTRF kit); details: 25° C., 1 h
# T1 construct: purchased PerkinElmer
# Description: Test Example 2: KRAS G12V Binding Assay
# In this method, the inhibitory effects of the compounds on the binding of KRAS G12V to GTP were assayed by a homogeneous time-resolved fluorescence (HTRF) technique using a KRAS-G12V/GTP binding assay kit (PerkinElmer).
# The experimental procedures were as follows (refer to the kit instructions for detailed test methods): the compounds of the present disclosure were each firstly dissolved in DMSO at a concentration of 20 mM, and then diluted in an equal gradient with a buffer in the kit, so that the final concentrations of the test compounds in the reaction system were in a range of 0.02-5000 nM, and the final concentration of DMSO was 0.5%. 5 μL of each compound was incubated with 5 μL of 1× Human KRAS G12V 6His-tagged (PerkinElmer), 5 µL of 1×6His Eu Cryptate Antibody (PerkinElmer), and 5 μL of 1×GTP Red reagent (PerkinElmer) in a 384-well plate (Greiner) at 25° C. for 1 h. After the incubation was completed, the fluorescence intensity of each well was measured at the excitation wavelength of 337 nm and the emission wavelengths of 620 nm and 665 nm with an EnVision microplate reader (PerkinElmer) in the HTRF mode, and Ratio values were calculated using the formula: Ratio=(665 nm/620 nm)×10^4. The inhibition rates of the compounds at each concentration were calculated by comparing the fluorescence intensity ratio with that of the control group. Then non-linear curve fittings for logarithmic concentration-inhibition rate were performed using the GraphPad Prism 8 analysis software, and the IC50 values of the compounds were obtained (Table 3).
# [1] = test system: KRAS G12D mutant human gastric cancer cell AGS; assay: 3D cell proliferation inhibition assay, AGS; format: cell-based; details: 168 h, 3D culture, 7 days, CTG
# Summary of the method: (§1)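 Seven-day 3D growth at 37 °C in low-adsorption wells, 5×10^2 cells/well except MKN1 (1×10^3), final compound range 10000–0.026 nM in 0.2% DMSO. CTG luminescence read-out; percent inhibition set against DMSO and medium-only wells, IC50 by curve fitting.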
# [2] = test system: KRAS G12D mutant human metastatic pancreatic cancer cell AsPc-1; assay: 3D cell proliferation inhibition assay, AsPc-1; format: cell-based; details: ASPC1, 168 h, 3D culture, 7 days, CTG
# Summary of the method: as §1
# [3] = test system: KRAS G12C mutant human non-small cell lung cancer cell NCI-H358; assay: 3D cell proliferation inhibition assay, NCI-H358; format: cell-based; details: NCI-H358, 168 h, 3D culture, 7 days, CTG
# Summary of the method: as §1
# [4] = test system: KRAS G12V mutant human colorectal cancer cell SW620; assay: 3D cell proliferation inhibition assay, SW620; format: cell-based; details: SW-620, 168 h, 3D culture, 7 days, CTG
# Summary of the method: as §1
# [5] = test system: KRAS G13D mutant human colorectal cancer epithelial cell DLD-1; assay: 3D cell proliferation inhibition assay, DLD-1; format: cell-based; details: DLD-1, 168 h, 3D culture, 7 days, CTG
# Summary of the method: as §1
# T1 sequence (P01116 1-188 isoform P01116-2 G12V): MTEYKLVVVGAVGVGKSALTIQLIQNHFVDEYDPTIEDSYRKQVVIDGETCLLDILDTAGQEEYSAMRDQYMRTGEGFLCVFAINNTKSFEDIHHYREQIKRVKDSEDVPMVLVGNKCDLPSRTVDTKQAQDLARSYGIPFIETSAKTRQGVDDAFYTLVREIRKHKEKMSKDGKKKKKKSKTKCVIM
IC50 (Human KRAS G12V) [nM],IC50 [1] [nM],IC50 [2] [nM],IC50 [3] [nM],IC50 [4] [nM],IC50 [5] [nM],SMILES
≤ 500,≤ 50,≤ 50,≤ 50,1.81,≤ 50,"C#Cc1c(F)ccc2cc(O)cc(-c3ncc4c(N5CCC[C@@](C)(O)C5)nc(OCC5(CN6CCN(CC7CCC8(CC7)CCN(C(=O)c7ccc(OC)c(N9CCC(=O)NC9=O)c7)CC8)CC6)CC5)nc4c3F)c12 [Example 7, (R)-1-(5-(9-((4-((1-(((7-(8-ethynyl-7-fluoro-3-hydroxynaphthalen-1-yl)-8-fluoro-4-(3-hydroxy-3-methylpiperidin-1-yl)pyrido[4,3-d]pyrimidin-2-yl)oxy)methyl)cyclopropyl)methyl)piperazin-1-yl)methyl)-3-azaspiro[5.5]undecane-3-carbonyl)-2-methoxyphenyl)dihydropyrimidine-2,4(1H,3H)-dione]"
500 to 1000,≤ 50,≤ 50,≤ 50,5.43,≤ 50,"C#Cc1cccc2cc(O)cc(-c3ncc4c(N5CCC[C@@](C)(O)C5)nc(OCC5(CN6CCN(CC7CCC8(CC7)CCN(C(=O)c7ccc(Cl)c(N9CCC(=O)NC9=O)c7)CC8)CC6)CC5)nc4c3F)c12 [Example 11, (R)-1-(2-chloro-5-(9-((4-((1-(((7-(8-ethynyl-3-hydroxynaphthalen-1-yl)-8-fluoro-4-(3-hydroxy-3-methylpiperidin-1-yl)pyrido[4,3-d]pyrimidin-2-yl)oxy)methyl)cyclopropyl)methyl)piperazin-1-yl)methyl)-3-azaspiro[5.5]undecane-3-carbonyl)phenyl)dihydropyrimidine-2,4(1H,3H)-dione]"
≤ 500,≤ 50,≤ 50,≤ 50,1.28,≤ 50,"C#Cc1c(F)ccc2cc(O)cc(-c3ncc4c(N5CCC[C@@](C)(O)C5)nc(OCC5(CN6CCN(CC7CCC8(CC7)CCN(C(=O)c7ccc(C)c(N9CCC(=O)NC9=O)c7)CC8)CC6)CC5)nc4c3F)c12 [Example 6, (R)-1-(5-(9-((4-((1-(((7-(8-ethynyl-7-fluoro-3-hydroxynaphthalen-1-yl)-8-fluoro-4-(3-hydroxy-3-methylpiperidin-1-yl)pyrido[4,3-d]pyrimidin-2-yl)oxy)methyl)cyclopropyl)methyl)piperazin-1-yl)methyl)-3-azaspiro[5.5]undecane-3-carbonyl)-2-methylphenyl)dihydropyrimidine-2,4(1H,3H)-dione]"

# Second part, the compound before the results:
SMILES,IC50 (Human KRAS G12V) [nM],IC50 [1] [nM],IC50 [2] [nM],IC50 [3] [nM],IC50 [4] [nM],IC50 [5] [nM]
"CCc1cccc2cc(O)cc(-c3ncc4c(N5CCC[C@@](C)(O)C5)nc(OCC5(CN6CCN(CC7CCC8(CC7)CCN(C(=O)c7ccc(Cl)c(N9CCC(=O)NC9=O)c7)CC8)CC6)CC5)nc4c3F)c12 [Example 3, (R)-1-(2-chloro-5-(9-((4-((1-(((7-(8-ethyl-3-hydroxynaphthalen-1-yl)-8-fluoro-4-(3-hydroxy-3-methylpiperidin-1-yl)pyrido[4,3-d]pyrimidin-2-yl)oxy)methyl)cyclopropyl)methyl)piperazin-1-yl)methyl)-3-azaspiro[5.5]undecane-3-carbonyl)phenyl)dihydropyrimidine-2,4(1H,3H)-dione]",≤ 500,≤ 50,≤ 50,≤ 50,2.52,≤ 50
"C#Cc1c(F)ccc2cc(O)cc(-c3ncc4c(N5CCC[C@@](C)(O)C5)nc(OCC5(CN6CCN(CC7CCC8(CC7)CCN(C(=O)c7ccc(Cl)c(N9CCC(=O)NC9=O)c7)CC8)CC6)CC5)nc4c3F)c12 [Example 1, (R)-1-(2-chloro-5-(9-((4-((1-(((7-(8-ethynyl-7-fluoro-3-hydroxynaphthalen-1-yl)-8-fluoro-4-(3-hydroxy-3-methylpiperidin-1-yl)pyrido[4,3-d]pyrimidin-2-yl)oxy)methyl)cyclopropyl)methyl)piperazin-1-yl)methyl)-3-azaspiro[5.5]undecane-3-carbonyl)phenyl)dihydropyrimidine-2,4(1H,3H)-dione]",≤ 500,≤ 50,≤ 50,≤ 50,1.41,≤ 50
"CCc1c(F)ccc2cc(O)cc(-c3ncc4c(N5CCC[C@@](C)(O)C5)nc(OCC5(CN6CCN(CC7CCC8(CC7)CCN(C(=O)c7ccc(Cl)c(N9CCC(=O)NC9=O)c7)CC8)CC6)CC5)nc4c3F)c12 [Example 2, (R)-1-(2-chloro-5-(9-((4-((1-(((7-(8-ethyl-7-fluoro-3-hydroxynaphthalen-1-yl)-8-fluoro-4-(3-hydroxy-3-methylpiperidin-1-yl)pyrido[4,3-d]pyrimidin-2-yl)oxy)methyl)cyclopropyl)methyl)piperazin-1-yl)methyl)-3-azaspiro[5.5]undecane-3-carbonyl)phenyl)dihydropyrimidine-2,4(1H,3H)-dione]",≤ 500,≤ 50,≤ 50,≤ 50,1.85,≤ 50
